Measurements reported in patent publication US6392118B1, “Mx-1 conditionally immortalized cells” (Neurotech S.A., priority 1994, dated 2002).

How the values were obtained:
[1] = test system: glial fibrillary acidic protein (GFAP); experiment: GFAP reactivity of neural stem cells encapsulated in BAOs with or without EGF; format: cell-based; conditions: 20 ng/ml EGF
Procedure: Neurospheres were prepared using the methods of Weiss et al., PCT/CA 92/00283. Passage 68 neurospheres were collected and divided. Half of the neurospheres were triturated into a single cell suspension and half remained as clusters. A single cell count was performed on a single cell suspension and it was assumed that the clustered cells were of the same concentration. Single cells and clusters were suspended separately in equal amounts of Vitrogen™ and either neurosphere medium with 20 ng/ml EGF as controls, or PC-1 medium.
Cells were loaded at a density of 25,000 cells/μl into single-skinned hollow fiber PAN/PVC BAOs, prepared substantially as described in Example 2, and then hub sealed. The BAOs were held in either neurosphere+EGF medium or in PC-1 medium (with no EGF).
The BAOs were sacrificed after 3 days and 7 days and were stained for glial fibrillary acidic protein (GFAP) by immunocytochemistry. GFAP is an intermediate filament protein specifically expressed in astrocytes. […]

Substance	GFAP Reactivity ([1]; cell clusters, 3 days)	GFAP Reactivity ([1]; cell clusters, 7 days)	GFAP Reactivity ([1]; single cell, 3 days)	GFAP Reactivity ([1]; single cell, 7 days)	toxicity of scaffold to PC12 cells (PC12 cells)
EGF: epidermal growth factor, 20 ng/ml in neurosphere medium	Negative	Negative	Negative	Negative	–
poly(hydroxyethyl methacrylate) [PHEMA]	–	–	–	–	nontoxic
